Several values for one entry are separate records, joined by “and”; a condition that tells them apart may be missing. Equal values may be shown once. Entries after “also recorded” stand apart in the source; their conditions may differ.
Legend:
MKL-1 MCC cells = test: XTT cell viability assay and synergy testing, MKL-1 cells; assay type: cell-based; conditions: 96 hours; for Response-rep1 / Response-rep2: HDM201 0 nM; for relative viability (XTT), untreated = 1: combinations with a fixed amount of Lenalidomide (5 uM), replicate columns; for Response: relative viability vs untreated
Experimental: (§1) Cell viability assays were performed using Cell Proliferation Kit II (XTT) (Roche) according to the manufacturer's instructions and BH3 profiling was described in Pallis et al. (36). Synergy testing was performed using Compusyn and Synergyfinder (28, 29).
The XTT assay was performed to determine the relative viability (% response) normalized to untreated cells.

p53 [1] = test: Western blot of p53 activation in MKL-1 cells; assay type: cell-based; conditions: 24-40 hours
Experimental: (§2) Confluent cultures of cells were washed with ice-cold phosphate-buffered saline (PBS) and resuspended in EBC lysis buffer (50 mM Tris, pH 8.0, 150 mM NaCl, 0.5% NP-40, 1:10,000-mercaptoethanol, 0.5 mM EDTA) for 10 min on ice and then centrifuged. Clarified lysates were incubated overnight with antibodies and magnetic protein A/G beads (PureProteome magnetic beads, EMD Millipore). […] Mouse monoclonal antibodies Ab3 and Ab5 against MCV T antigens were generated against MCV large T antigen residues 1 to 260 and produced as a glutathione S-transferase (GST) fusion protein in bacteria (17). Quantitative western blotting was performed using the Odyssey near-infrared system (Li-Cor Biotechnology).

CK1α [2] = molecular target: T1, CK1α (Homo sapiens, UniProt P48729); test: Western blot of CK1α protein levels in MKL-1 cells; assay type: cell-based; conditions: IMiD 10 μM
Experimental: (§3) Confluent cultures of cells were washed with ice-cold phosphate-buffered saline (PBS) and resuspended in EBC lysis buffer (50 mM Tris, pH 8.0, 150 mM NaCl, 0.5% NP-40, 1:10,000-mercaptoethanol, 0.5 mM EDTA) for 10 min on ice and then centrifuged. Clarified lysates were incubated overnight with antibodies and magnetic protein A/G beads (PureProteome magnetic beads, EMD Millipore). […] Quantitative western blotting was performed using the Odyssey near-infrared system (Li-Cor Biotechnology).

CK1α [3] = molecular target: T1, CK1α; test: Western blot of CK1α in UISO cells; assay type: cell-based; conditions: lenalidomide 10 μM, 24 hours
Excerpt: Of note, UISO has less MDM2 and MDM4 proteins than MKL-1.

MDM4 binding to p53 = test: Immunoprecipitation of MDM4, p53 and CK1α from MKL-1 lysates; assay type: cell-based; conditions: MKL-1 cells; nutlin-3 5 μM, lenalidomide 10 μM, 40 hours
Experimental: as §2

MKL-1 MCC xenografts = test: Xenograft efficacy study; conditions: individual animals, oral daily, HDM201 40 mg/kg and/or lenalidomide 50 mg/kg; for Tumor Volume Change, Abs Ch = T − T0: tumor volumes in mm3
Excerpt: The study was terminated when the tumor volume reached the maximum permissible size of 2000 mm3.

MS-1 cells = test: XTT viability assay, MS-1 cells; assay type: cell-based; conditions: MS-1 (p53 mutant); 96 hours
Experimental: as §1

p53 [4] = test: Western blot of p53 response in IMR90-p53DD cells; assay type: cell-based, human; conditions: IMR90 cells expressing p53DD, Nutlin-3 1 μM, 24 hours
Experimental: as §3

T1 sequence (P48729 whole entry): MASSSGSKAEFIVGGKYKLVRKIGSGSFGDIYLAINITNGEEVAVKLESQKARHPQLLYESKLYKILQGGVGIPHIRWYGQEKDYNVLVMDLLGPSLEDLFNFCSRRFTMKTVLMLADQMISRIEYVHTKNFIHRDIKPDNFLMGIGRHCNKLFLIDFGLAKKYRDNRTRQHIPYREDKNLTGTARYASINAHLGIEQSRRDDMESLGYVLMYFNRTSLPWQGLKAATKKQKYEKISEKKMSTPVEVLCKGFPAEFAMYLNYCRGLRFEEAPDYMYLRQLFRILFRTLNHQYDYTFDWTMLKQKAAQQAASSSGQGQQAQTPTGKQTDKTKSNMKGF

Q: What does the source list for `Nc1cccc2c1CN(C1CCC(=O)NC1=O)C2=O` (racemic) [Lenalidomide, (RS)-3-(7-Amino-3-oxo-1H-isoindol-2-yl)piperidin-2,6-dion]?
A: Response-rep1 (MKL-1 MCC cells; Lenalidomide 5000 nM): 98.9539%; Response-rep2 (MKL-1 MCC cells; Lenalidomide 5000 nM): 97.73%; Response-rep1 (MKL-1 MCC cells; Lenalidomide 10000 nM): 83.3296%; Response-rep2 (MKL-1 MCC cells; Lenalidomide 10000 nM): 76.26%; Response-rep1 (MKL-1 MCC cells; Lenalidomide 15000 nM): 69.78%; Response-rep2 (MKL-1 MCC cells; Lenalidomide 15000 nM): 67.82%; Response-rep1 (MKL-1 MCC cells; Lenalidomide 18000 nM): 25.1812%; Response-rep2 (MKL-1 MCC cells; Lenalidomide 18000 nM): 49.26%; relative viability (XTT), untreated = 1 (MKL-1 MCC cells; Nutlin-3 or RG7388 level 25 (unit not given)): 1.143 and 0.8845 and 1.022; relative viability (XTT), untreated = 1 (MKL-1 MCC cells; Nutlin-3 or RG7388 level 50 (unit not given)): 1.089 and 0.9384 and 1.081; relative viability (XTT), untreated = 1 (MKL-1 MCC cells; Nutlin-3 or RG7388 level 75 (unit not given)): 1.027 and 1.061 and 1.086; relative viability (XTT), untreated = 1 (MKL-1 MCC cells; Nutlin-3 or RG7388 level 90 (unit not given)): 1.011 and 0.945 and 0.9521; Response (MKL-1 MCC cells; Lenalidomide 5000 nM alone): 104.85%; Response (MKL-1 MCC cells; Lenalidomide 10000 nM alone): 105.06%; Response (MKL-1 MCC cells; Lenalidomide 15000 nM alone): 107.06%; Response (MKL-1 MCC cells; Lenalidomide 18000 nM alone): 100.64%; p53 activation (p53, P-p53, Ac-p53, p21, PUMA levels) (p53 [1]): modest positive effect on p53 levels; CK1α protein levels (CK1α [2]): reduces CK1α protein rapidly; also recorded: decreases CK1α protein levels; CK1α protein levels (CK1α [2]; listed as lenalidomide): levels rapidly decreased; CK1α levels (CK1α [3]): depletes CK1α; CK1α levels (CK1α [3]; listed as lenalidomide): decreased the CK1α levels; MDM4 binding to p53 (co-immunoprecipitation) (MDM4 binding to p53): reduces MDM4 binding to p53; Tumor Volume Change, % Ch = (T − T0)/T0 (MKL-1 MCC xenografts; day 0): 0.00%; Tumor Volume Change, Abs Ch = T − T0 (MKL-1 MCC xenografts; day 0): 0.00; Tumor Volume Change, % Ch = (T − T0)/T0 (MKL-1 MCC xenografts; day 4): 74.88% and 101.33% and 102.10% and 99.96% and 150.37% and 52.58% and 63.66% and 71.12%; Tumor Volume Change, Abs Ch = T − T0 (MKL-1 MCC xenografts; day 4): 144.53 and 151.67 and 182.72 and 171.42 and 196.53 and 107.98 and 82.85 and 113.80; Tumor Volume Change, % Ch = (T − T0)/T0 (MKL-1 MCC xenografts; day 7): 172.14% and 170.30% and 232.85% and 199.00% and 277.21% and 108.30% and 219.88% and 209.85%; Tumor Volume Change, Abs Ch = T − T0 (MKL-1 MCC xenografts; day 7): 332.29 and 254.90 and 416.69 and 341.29 and 362.30 and 222.38 and 286.16 and 335.77; Tumor Volume Change, % Ch = (T − T0)/T0 (MKL-1 MCC xenografts; day 11): 532.35% and 513.08% and 584.49% and 475.00% and 680.10% and 321.83% and 431.10% and 501.46%; Tumor Volume Change, Abs Ch = T − T0 (MKL-1 MCC xenografts; day 11): 1027.58 and 768.00 and 1045.97 and 814.62 and 888.86 and 660.89 and 561.06 and 802.36; Tumor Volume Change, % Ch = (T − T0)/T0 (MKL-1 MCC xenografts; day 14): 811.07% and 861.89% and 936.62% and 702.42% and 1182.50% and 538.29% and 804.69% and 779.36%; Tumor Volume Change, Abs Ch = T − T0 (MKL-1 MCC xenografts; day 14): 1565.59 and 1290.11 and 1676.13 and 1204.65 and 1545.48 and 1105.37 and 1047.26 and 1246.99; Tumor Volume Change, % Ch = (T − T0)/T0 (MKL-1 MCC xenografts; day 18): 1406.04% and 1123.01% and 1595.67% and 1146.29% and 1544.08% and 774.41% and 1719.65% and 1318.82%; Tumor Volume Change, Abs Ch = T − T0 (MKL-1 MCC xenografts; day 18): 2714.05 and 1680.96 and 2855.54 and 1965.88 and 2018.05 and 1590.25 and 2238.02 and 2110.15

Q: What does the source list for `COc1ccc(C2=N[C@@H](c3ccc(Cl)cc3)[C@@H](c3ccc(Cl)cc3)N2C(=O)N2CCNC(=O)C2)c(OC(C)C)c1` [Nutlin-3]?
A: sensitivity of MKL-1 cells to MDM2 inhibitor (XTT viability) (MKL-1 MCC cells; MKL-1 (p53 wild type)): sensitive; Response (MKL-1 MCC cells; Nutlin-3 1250 nM alone): 96.8309% and 82.16%; Response (MKL-1 MCC cells; Nutlin-3 2500 nM alone): 65.56% and 72.5696%; Response (MKL-1 MCC cells; Nutlin-3 3750 nM alone): 44.2% and 63.6648%; Response (MKL-1 MCC cells; Nutlin-3 4500 nM alone): 41.19% and 56.8421%; sensitivity of MS-1 cells to MDM2 inhibitor (XTT viability) (MS-1 cells): not MS-1 cells were sensitive; p53 response (p53 [4]): does not elicit p53 response; p53 response (p53 [4]; listed as nutlin-3): did not increase p53, p-p53 and PUMA levels

From US12115151B2, “Method of treatment of p53 WT tumors” (Dana-Farber Cancer Institute, Inc., priority 2018, dated 2024)
